# Assay results as given in patent US20040058861A1, “Use of lipopeptides in immunotherapy of HIV+ individuals” (priority 2000, published 2004).
# Where a SMILES comes first, the peptide text is derived from it. The star is where a group is joined. Palmitoyl = CCCCCCCCCCCCCCCC(=O)*
# Assay: Solubilization of each lyophilized lipopeptide in pure acetic acid
# Type: physicochemical
# Details: pure acetic acid added to obtain 12.5 mg net/ml; before sonication
# Procedure: Each lipopeptide is then solubilized by adding pure acetic acid to obtain a concentration of 12.5 mg net/ml. […] If the aggregates are not dissociated, the sonication is continued, separating each period of sonication (30 s) by 30 s gaps of no sonication, during which the bottles are shaken manually. At the end of the sonication step, the suspensions should be homogeneous (but will not be clear). Each lipopeptide is then diluted by adding water for injectable preparation. If the solution obtained is not totally clear, steps of heating in a water bath (at 40° C.±2° C.) and sonication (1 min maximum) may be carried out, separating them by 30 s gaps of no sonication. The final preparation is obtained by mixing the lipopeptides in equal weight amounts, adding them in the following order (the most hydrophilic to the most hydrophobic lipopeptides):
compound,measurement,value
CCCCCCCCCCCCCCCC(=O)NCCCC[C@H](NC(=O)[C@H](CC(C)C)NC(=O)[C@H](CCCCN)NC(=O)[C@H](Cc1ccc(O)cc1)NC(=O)[C@H](CC(C)C)NC(=O)[C@H](Cc1c[nH]c2ccccc12)NC(=O)CNC(=O)[C@H](Cc1ccccc1)NC(=O)[C@@H](NC(=O)[C@H](CC(C)C)NC(=O)[C@@H]1CCCN1C(=O)[C@H](Cc1ccc(O)cc1)NC(=O)[C@H](CCCNC(=N)N)NC(=O)[C@@H](NC(=O)CNC(=O)[C@@H]1CCCN1C(=O)CNC(=O)[C@@H]1CCCN1C(=O)[C@@H](NC(=O)[C@H](Cc1ccc(O)cc1)NC(=O)[C@H](CC(N)=O)NC(=O)[C@H](CCC(N)=O)NC(=O)[C@H](Cc1c[nH]c2ccccc12)NC(=O)[C@H](CC(=O)O)NC(=O)[C@@H]1CCCN1C(=O)[C@H](Cc1ccccc1)NC(=O)[C@H](Cc1ccc(O)cc1)NC(=O)CNC(=O)[C@H](CCC(N)=O)NC(=O)[C@@H](NC(=O)[C@@H](N)Cc1c[nH]cn1)[C@@H](C)O)[C@@H](C)O)C(C)C)[C@@H](C)O)C(N)=O [Nef 116] (H-HTQGYFPDWQNYTPGPGVRYPLTFGWLYKLK(Palmitoyl)-NH2; N-terminus assumed),solubility in pure acetic acid,soluble
